Laboratory results taken from patent publication US12325703B2, “Fused ring compound as FGFR and VEGFR dual inhibitor” (CGENETECH (SUZHOU, CHINA) CO., LTD., priority 2019, dated 2025).
Where a name gives a salt, the structure may show the parent alone.

Columns and labels:
[1] = system: human gastric cancer SNU-16 cells expressing FGFR2; assay: Cell activity (proliferation) test of gastric cancer cell line SNU-16, CellTiter-Glo; type: cell-based; conditions: inhibition of proliferation
Procedure: To test the inhibitory effect of the compounds on the proliferation of human gastric cancer SNU-16 cells expressing FGFR2.
The compounds used in the test were subjected to 3-fold concentration dilution, the concentration starting from 10 μM and subjected to […], resulting in 9 concentrations: 10 μM, 2.50 μM, 0.62 μM, 0.156 μM, 39.1 nM, 9.8 nM, 2.4 nM, 0.61 nM, and 0.15 nM.
(1) Promega CellTiter-Glo luminescent cell viability assay kit (Promega-G7573).
(2) 2104 EnVision multi-tag reader, PerkinElmer.
The inhibition rate of different doses of the compounds would be calculated in the Excel file, and the IC50 data was obtained by parametric curve fitting (GraphPad Software).

human FGFR1 = biological target: T1, human FGFR1 (Homo sapiens, UniProt P11362); assay: 33P isotope-labeled kinase activity test (Reaction Biology Corp), FGFR1; type: biochemical; conditions: 33P-ATP 5 μM, kinase 1.5 nM, 120 min room temperature
T1 construct: purchased Invitrogen PV3146
T1 sequence (P11362 22-822): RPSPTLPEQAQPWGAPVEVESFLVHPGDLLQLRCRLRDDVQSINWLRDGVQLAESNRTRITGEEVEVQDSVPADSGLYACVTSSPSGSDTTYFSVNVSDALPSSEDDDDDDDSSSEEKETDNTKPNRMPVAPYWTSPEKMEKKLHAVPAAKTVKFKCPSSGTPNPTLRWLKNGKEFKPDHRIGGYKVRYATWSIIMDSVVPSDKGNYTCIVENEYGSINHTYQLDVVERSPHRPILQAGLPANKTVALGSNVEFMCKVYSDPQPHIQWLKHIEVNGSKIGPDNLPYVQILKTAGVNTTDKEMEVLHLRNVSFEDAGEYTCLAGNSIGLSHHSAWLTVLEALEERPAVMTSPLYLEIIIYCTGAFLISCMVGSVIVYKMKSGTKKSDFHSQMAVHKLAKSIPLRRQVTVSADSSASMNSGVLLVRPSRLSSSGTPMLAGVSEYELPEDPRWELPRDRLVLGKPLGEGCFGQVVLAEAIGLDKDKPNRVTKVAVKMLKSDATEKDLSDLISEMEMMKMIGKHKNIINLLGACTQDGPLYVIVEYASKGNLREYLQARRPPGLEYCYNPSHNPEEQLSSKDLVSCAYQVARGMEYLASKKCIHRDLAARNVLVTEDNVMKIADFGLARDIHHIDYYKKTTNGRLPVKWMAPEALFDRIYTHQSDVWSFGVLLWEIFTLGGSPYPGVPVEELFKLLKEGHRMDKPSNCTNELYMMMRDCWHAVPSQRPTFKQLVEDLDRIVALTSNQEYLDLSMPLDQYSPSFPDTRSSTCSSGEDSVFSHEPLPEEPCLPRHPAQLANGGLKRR
Procedure: (§1) The IC50 value was determined using ^33P isotope-labeled kinase activity test (Reaction Biology Corp) to evaluate the inhibitory ability of the compounds to be tested on human FGFR1, FGFR2 and VEGFR2.
(§2) Buffer conditions: 20 mM Hepes (pH 7.5), 10 mM MgCl2, 1 mM EGTA, 0.02% Brij35, 0.02 mg/mL BSA, 0.1 mM Na3VO4, 2 mM DTT, 1% DMSO.
(§3) Test steps: At room temperature, the compounds to be tested were dissolved in DMSO to prepare a 10 mM solution for use. The substrate was dissolved in the newly-prepared buffer, and the kinase to be tested was added thereto and mixed well. The DMSO solution in which the compounds to be tested were dissolved was added to the above-mentioned homogeneous reaction solution using acoustic technology (Echo 550). […] After incubating for 15 minutes, to the reaction solution was added ^33P-ATP (activity: 0.01 μCi/μL, with corresponding concentration listed in Table 10) to start the reaction. […] The kinase activity data was expressed by comparing the kinase activity of the groups containing the compounds to be tested with that of the blank group (containing only DMSO). The IC50 value was obtained by curve fitting using Prism4 software (GraphPad), and the experimental results were shown in Table 11.

human FGFR2 = biological target: T2, human FGFR2 (Homo sapiens, UniProt P21802); assay: 33P isotope-labeled kinase activity test (Reaction Biology Corp), FGFR2; type: biochemical; conditions: 33P-ATP 5 μM, kinase 0.45 nM, 120 min room temperature
T2 construct: purchased Invitrogen PV3368
T2 sequence (P21802 22-821): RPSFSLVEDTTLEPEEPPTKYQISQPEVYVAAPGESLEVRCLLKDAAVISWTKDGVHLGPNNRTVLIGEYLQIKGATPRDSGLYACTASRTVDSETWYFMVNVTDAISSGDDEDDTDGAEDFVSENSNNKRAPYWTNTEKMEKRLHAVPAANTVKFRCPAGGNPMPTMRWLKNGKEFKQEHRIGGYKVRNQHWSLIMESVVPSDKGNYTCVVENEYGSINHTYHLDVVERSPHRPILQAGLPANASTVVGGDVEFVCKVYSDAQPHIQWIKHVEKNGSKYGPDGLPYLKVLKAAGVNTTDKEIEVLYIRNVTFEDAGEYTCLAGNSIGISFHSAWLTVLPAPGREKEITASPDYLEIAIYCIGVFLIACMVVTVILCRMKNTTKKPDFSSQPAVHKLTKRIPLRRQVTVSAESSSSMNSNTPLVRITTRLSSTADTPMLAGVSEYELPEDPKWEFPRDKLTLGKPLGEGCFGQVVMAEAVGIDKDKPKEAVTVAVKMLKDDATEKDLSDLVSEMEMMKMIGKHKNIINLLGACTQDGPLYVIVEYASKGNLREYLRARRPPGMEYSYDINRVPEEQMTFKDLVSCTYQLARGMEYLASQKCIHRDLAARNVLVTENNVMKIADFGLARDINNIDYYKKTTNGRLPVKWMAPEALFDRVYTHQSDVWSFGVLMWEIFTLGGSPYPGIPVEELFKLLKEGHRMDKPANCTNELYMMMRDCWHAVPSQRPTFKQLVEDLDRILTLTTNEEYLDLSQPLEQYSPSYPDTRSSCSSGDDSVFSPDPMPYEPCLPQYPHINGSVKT
Procedure: as §1, §2, §3

human VEGFR2 = biological target: T3, human VEGFR2 (Homo sapiens, UniProt P35968); assay: 33P isotope-labeled kinase activity test (Reaction Biology Corp), VEGFR2; type: biochemical; conditions: 33P-ATP 20 μM, kinase 1 nM, 120 min room temperature
T3 construct: purchased Invitrogen PR5992C
T3 sequence (P35968 20-1356): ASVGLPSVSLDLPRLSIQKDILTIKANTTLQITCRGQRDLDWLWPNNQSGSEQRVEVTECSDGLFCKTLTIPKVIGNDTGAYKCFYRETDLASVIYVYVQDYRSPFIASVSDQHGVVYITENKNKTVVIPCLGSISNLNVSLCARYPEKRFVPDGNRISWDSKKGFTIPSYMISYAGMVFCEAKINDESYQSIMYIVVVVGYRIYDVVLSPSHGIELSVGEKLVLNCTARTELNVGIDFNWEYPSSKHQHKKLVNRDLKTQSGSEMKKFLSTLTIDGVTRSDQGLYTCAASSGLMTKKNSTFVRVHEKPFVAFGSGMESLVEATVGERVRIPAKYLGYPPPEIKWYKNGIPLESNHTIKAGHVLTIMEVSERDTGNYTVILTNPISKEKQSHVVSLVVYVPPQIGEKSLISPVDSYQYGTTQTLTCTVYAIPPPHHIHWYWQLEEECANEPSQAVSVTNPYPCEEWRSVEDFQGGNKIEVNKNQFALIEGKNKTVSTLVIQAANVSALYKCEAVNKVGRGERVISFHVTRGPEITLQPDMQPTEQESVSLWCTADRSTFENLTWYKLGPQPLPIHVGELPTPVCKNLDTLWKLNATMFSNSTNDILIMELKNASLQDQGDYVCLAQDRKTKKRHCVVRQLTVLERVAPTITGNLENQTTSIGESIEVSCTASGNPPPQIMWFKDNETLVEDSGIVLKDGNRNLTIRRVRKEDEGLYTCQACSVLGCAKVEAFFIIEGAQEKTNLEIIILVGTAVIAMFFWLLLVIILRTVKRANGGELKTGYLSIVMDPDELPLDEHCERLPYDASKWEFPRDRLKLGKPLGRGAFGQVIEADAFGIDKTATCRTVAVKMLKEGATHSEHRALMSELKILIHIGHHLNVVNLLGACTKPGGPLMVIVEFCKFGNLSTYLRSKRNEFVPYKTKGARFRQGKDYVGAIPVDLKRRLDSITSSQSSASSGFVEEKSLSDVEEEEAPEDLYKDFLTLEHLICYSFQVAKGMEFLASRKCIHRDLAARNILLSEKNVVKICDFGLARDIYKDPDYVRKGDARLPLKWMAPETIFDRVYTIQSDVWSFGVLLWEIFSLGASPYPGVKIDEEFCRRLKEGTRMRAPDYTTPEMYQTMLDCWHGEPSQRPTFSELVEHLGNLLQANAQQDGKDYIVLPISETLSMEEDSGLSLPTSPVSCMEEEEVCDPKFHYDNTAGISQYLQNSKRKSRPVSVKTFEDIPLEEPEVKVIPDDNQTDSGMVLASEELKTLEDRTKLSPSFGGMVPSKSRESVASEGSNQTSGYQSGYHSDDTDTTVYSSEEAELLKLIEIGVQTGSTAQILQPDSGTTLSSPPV
Procedure: as §1, §2, §3

IC50 (human FGFR2) [nM]	Compound	further results
	Cn1cc(-c2ccc3c(c2)ncn3-c2cc(NS(=O)(=O)C3CC3)cc(-c3ccc(F)cc3F)c2)cn1 [Comparative example 1, reference compound]	IC50 [1]: 62 nM
	CC(=O)Nc1cc(-c2ccc(F)cc2F)cc(-c2cnn3cc(-c4cnn(C)c4)ccc23)c1 [Compound 3]	IC50 (human FGFR1): 2.37 nM
	CC(C)Nc1cc(-c2ccc(F)cc2F)cc(-c2cnn3cc(-c4cnn(C)c4)ccc23)c1 [Compound 6]	IC50 (human FGFR1): 17 nM
	Cn1cnc(-c2ccc3c(-c4cc(NS(C)(=O)=O)cc(-c5ccc(F)cc5F)c4)cnn3c2)n1 [Compound 7]	IC50 (human FGFR1): 135 nM
65.3	Cn1cc(-c2ccc3c(-c4cc(NS(=O)(=O)C5CC5)cc(-c5ccc(F)nc5F)c4)cnn3c2)cn1 [Compound 8]	
3.74	Cn1cc(-c2ccc3c(-c4cc(NS(C)(=O)=O)nc(-c5ccc(F)cc5F)c4)cnn3c2)cn1 [Compound 12]	
2.98	CCS(=O)(=O)Nc1cc(-c2cnn3cc(-c4cnn(C)c4)ccc23)cc(-c2ccc(F)cc2F)n1 [Compound 13]	
	Cn1cc(-c2ccc3c(-c4cc(NS(=O)(=O)C5CC5)nc(-c5ccc(F)cc5F)c4)cnn3c2)cn1 [Compound 14]	IC50 (human FGFR1): 10.3 nM
287	CS(=O)(=O)Nc1cc(-c2ccc(F)cc2F)cc(-c2cnn3cc(-c4ncn(C5CCOCC5)n4)ccc23)c1 [Compound 15]	
312	Cc1ncn(-c2ccc3c(-c4cc(NS(=O)(=O)C5CC5)cc(-c5ccc(F)cc5F)c4)cnn3c2)n1 [Compound 16]	
142	CCS(=O)(=O)Nc1cc(-c2ccc(F)cc2F)cc(-c2cnn3cc(-n4cnc(C)n4)ccc23)c1 [Compound 17]	
256	CS(=O)(=O)Nc1cc(-c2ccc(F)cc2F)cc(-c2cnn3cc(-c4ncn(CCO)n4)ccc23)c1 [Compound 18]	
88.6	Cc1ncn(-c2ccc3c(-c4cc(NS(C)(=O)=O)cc(-c5ccc(F)cc5F)c4)cnn3c2)n1 [Compound 19]	
0.23	CN(C)CCn1cc(-c2ccc3c(-c4cc(NS(C)(=O)=O)cc(-c5ccc(F)cc5F)c4)cnn3c2)cn1 [Compound 20]	IC50 [1]: 7.5 nM
4.38	CS(=O)(=O)Nc1cc(-c2ccc(F)cc2F)cc(-c2cnn3cc(-c4cnn(CC(O)CO)c4)ccc23)c1 (stereo not shown) [Compound 22]	IC50 [1]: 28.5 nM; IC50 (human VEGFR2): 1.88 nM
1.88	Cn1cc(-c2ccc3c(-c4cc(NC(=O)NC5CC5)cc(-c5ccc(F)cc5F)c4)cnn3c2)cn1 [Compound 23]	
10.1	CONC(=O)Nc1cc(-c2ccc(F)cc2F)cc(-c2cnn3cc(-c4cnn(C)c4)ccc23)c1 [Compound 24]	
40.2	Cn1cc(-c2ccc3c(-c4cc(NC(=O)N5CCC(O)C5)cc(-c5ccc(F)cc5F)c4)cnn3c2)cn1 (stereo not shown) [Compound 25]	IC50 (human VEGFR2): 22.4 nM
	Cn1cc(-c2ccc3c(-c4cc(NS(C)(=O)=O)cc(-c5ccc(F)cc5F)c4)cnn3c2)nn1 [Compound 26]	IC50 [1]: 7.8 nM
359	Cn1nccc1-c1ccc2c(-c3cc(NS(C)(=O)=O)cc(-c4ccc(F)cc4F)c3)cnn2c1 [Compound 28]	
0.3	CN1CCC(n2cc(-c3ccc4c(-c5cc(NS(C)(=O)=O)cc(-c6ccc(F)cc6F)c5)cnn4c3)cn2)CC1 [Compound 30]	
1.79	CC(C)(O)Cn1cc(-c2ccc3c(-c4cc(NS(C)(=O)=O)cc(-c5ncc(F)cc5F)c4)cnn3c2)cn1 [Compound 31]	
0.42	CS(=O)(=O)Nc1cc(-c2ncc(F)cc2F)cc(-c2cnn3cc(-c4cnn(CC(O)CO)c4)ccc23)c1 (stereo not shown) [Compound 34]	IC50 (human VEGFR2): 0.29 nM
49.2	CS(=O)(=O)Nc1cc(-c2ncc(F)cc2F)cc(-c2cnn3cc(C4CC4)ccc23)c1 [Compound 35]	
0.23	CN1CCC(n2cc(-c3ccc4c(-c5cc(NS(C)(=O)=O)cc(-c6ncc(F)cc6F)c5)cnn4c3)cn2)CC1 [Compound 36]	
0.72	CS(=O)(=O)Nc1cc(-c2ncc(F)cc2F)cc(-c2cnn3cc(-c4cnn(CCN5CCOCC5)c4)ccc23)c1 [Compound 38]	

IC50 (human FGFR2) [nM]	Compound	further results
0.95	CS(=O)(=O)Nc1cc(-c2ncc(F)cc2F)cc(-c2cnn3cc(-c4cnn(CC5COCCO5)c4)ccc23)c1 (stereo not shown) [Compound 39]	IC50 (human VEGFR2): 0.66 nM
0.77	CS(=O)(=O)CCCn1cc(-c2ccc3c(-c4cc(NS(C)(=O)=O)cc(-c5ncc(F)cc5F)c4)cnn3c2)cn1 [Compound 40]	IC50 (human VEGFR2): 1.99 nM
1.81	Cn1cc(-c2ccc3c(-c4cc(-c5ccc(F)cc5F)cc(NS(C)(=O)=O)n4)cnn3c2)cn1 [Compound 41]	
1.06	Cn1cc(-c2ccc3c(-c4cc(-c5ccc(F)cc5F)cc(NS(=O)(=O)C5CC5)n4)cnn3c2)cn1 [Compound 42]	
0.47	CCS(=O)(=O)Nc1cc(-c2ccc(F)cc2F)cc(-c2cnn3cc(-c4cnn(C)c4)ccc23)n1 [Compound 43]	
0.72	CS(=O)(=O)Nc1cc(-c2ncc(F)cc2F)cc(-c2cnn3cc(-c4cnn(CC5COCCN5)c4)ccc23)c1 (stereo not shown) [Compound 44]	IC50 (human VEGFR2): 1.4 nM
29.6	CS(=O)(=O)Nc1cc(-c2ncc(F)cc2F)cc(-c2cnn3cc(-c4cnn(CC5COCCN5Cc5ccccc5)c4)ccc23)c1 (stereo not shown) [Compound 45]	IC50 (human VEGFR2): 11.2 nM
0.95	Cn1cc(-c2ccc3c(-c4cc(NCC5COC(C)(C)O5)cc(-c5ncc(F)cc5F)c4)cnn3c2)cn1 (stereo not shown) [Compound 48]	IC50 (human VEGFR2): 8.39 nM
2.29	Cn1cc(-c2ccc3c(-c4cc(NCC(C)(C)O)cc(-c5ncc(F)cc5F)c4)cnn3c2)cn1 [Compound 49]	
1.05	Cn1cc(-c2ccc3c(-c4cc(NCC(O)CO)cc(-c5ncc(F)cc5F)c4)cnn3c2)cn1 (stereo not shown) [Compound 50]	IC50 (human VEGFR2): 3.82 nM
6.59	Cn1cc(-c2ccc3c(-c4cc(NCC5COC(C)(C)O5)cc(-c5ccc(F)cc5F)c4)cnn3c2)cn1 (stereo not shown) [Compound 52]	IC50 (human VEGFR2): 21.4 nM
5.59	Cn1cc(-c2ccc3c(-c4cc(NCC(O)CO)cc(-c5ccc(F)cc5F)c4)cnn3c2)cn1 (stereo not shown) [Compound 53]	IC50 (human VEGFR2): 3.63 nM
10.6	Cn1cc(-c2ccc3c(-c4cc(NCC(C)(C)O)cc(-c5ccc(F)cc5F)c4)cnn3c2)cn1 [Compound 54]	
0.57	CS(=O)(=O)Nc1cc(-c2ccc(F)cc2F)cc(-c2cnn3cc(-c4cnn(C5CCNCC5)c4)ccc23)c1 [Hydrochloride salt of compound 21]	IC50 [1]: 9.6 nM
0.18	CS(=O)(=O)Nc1cc(-c2ncc(F)cc2F)cc(-c2cnn3cc(-c4cnn(C5CCNCC5)c4)ccc23)c1 [Hydrochloride salt of compound 37]	
0.45	O=S(=O)(Nc1cc(-c2ncc(F)cc2F)cc(-c2cnn3cc(-c4cnn(C5CCNCC5)c4)ccc23)c1)C1CC1 [Hydrochloride salt of compound 47]	
1.27	O=S(=O)(Nc1cc(-c2ccc(F)cc2F)cc(-c2cnn3cc(-c4cnn(C5CCNCC5)c4)ccc23)c1)C1CC1 [Hydrochloride salt of compound 51]	
73.3	Cn1cc(-c2ccc3c(-c4cc(NS(=O)(=O)C5CC5)cc(-c5ccc(F)nc5)c4)cnn3c2)cn1 [Trifluoroacetate salt of compound 9]	
36.5	Cn1cc(-c2ccc3c(-c4cc(NS(=O)(=O)C5CC5)cc(-c5cccnc5F)c4)cnn3c2)cn1 [Trifluoroacetate salt of compound 10]	
0.76	Cn1cc(-c2ccc3c(-c4cc(NS(=O)(=O)C5CC5)cc(-c5ncc(F)cc5F)c4)cnn3c2)cn1 [Trifluoroacetate salt of compound 11]	IC50 [1]: 10.5 nM; IC50 (human VEGFR2): 0.6 nM
1.98	Cn1cc(-c2ccc3c(-c4cc(NS(C)(=O)=O)cc(-c5ccc(F)cc5F)c4)cnn3c2)nn1 [Trifluoroacetate salt of compound 26]	IC50 (human VEGFR2): 2.74 nM
2.55	Cn1cnc(-c2ccc3c(-c4cc(NS(C)(=O)=O)cc(-c5ccc(F)cc5F)c4)cnn3c2)c1 [Trifluoroacetate salt of compound 27]	IC50 [1]: 11.5 nM
3.98	CS(=O)(=O)Nc1cc(-c2cnn3cc(-c4cnn(CCN5CCOCC5)c4)ccc23)cc(-c2ccc(F)cc2F)n1 [Trifluoroacetate salt of compound 29]	
1.09	Cn1cc(-c2ccc3c(-c4cc(NS(C)(=O)=O)cc(-c5ncc(F)cc5F)c4)cnn3c2)cn1 [Trifluoroacetate salt of compound 32]	
1.21	CCS(=O)(=O)Nc1cc(-c2ncc(F)cc2F)cc(-c2cnn3cc(-c4cnn(C)c4)ccc23)c1 [Trifluoroacetate salt of compound 33]	IC50 [1]: 6.2 nM
